Data as given in patent US8975417B2, “Pyrazolopyrrolidine derivatives and their use in the treatment of disease” (Novartis AG, priority 2013, dated 2015).

Test system: MV-4-11 cells
Test: Cell growth inhibition assay (CellTiter-Glo), MV-4-11
Assay type: cell-based
Conditions: Homo sapiens, MV4-11, read-out: MV-4-11 TGI
Summary of the method: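 Luminescent ATP quantification served as the viability read-out following incubation at 37° C. under 5% CO2. A day-0 reference plate allowed scaling from −100% (medium) to 100% (0.1% DMSO vehicle), with IC50 and TGI fitted by a four-parameter model.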

| Structure (SMILES) | IC (total growth inhibition) |
| --- | --- |
| Cc1cc(N2C(=O)c3nn(C4COC4)c(C)c3C2c2ccc(Cl)cc2)cn2c(C)nnc12 (stereo not shown) [Example 136, 4-(4-chlorophenyl)-5-(3,8-dimethyl-[1,2,4]triazolo[4,3-a]pyridin-6-yl)-3-methyl-2-(oxetan-3-yl)-4,5-dihydropyrrolo[3,4-c]pyrazol-6(2H)-one] | 0.041 µM |
| Cc1nn(C2COC2)c2c1C(c1ccc(Cl)cc1)N(c1cc(C)c3nnc(C)n3c1)C2=O (stereo not shown) [Example 137, 4-(4-chlorophenyl)-5-(3,8-dimethyl-[1,2,4]triazolo[4,3-a]pyridin-6-yl)-3-methyl-1-(oxetan-3-yl)-4,5-dihydropyrrolo[3,4-c]pyrazol-6(1H)-one] | 0.0421 µM |
| Cc1nn(C2CN(C)C2)c2c1C(c1ccc(Cl)cc1)N(c1cc(C)c(=O)n(C)c1)C2=O (stereo not shown) [Example 140, 4-(4-chlorophenyl)-5-(1,5-dimethyl-6-oxo-1,6-dihydropyridin-3-yl)-3-methyl-1-(1-methylazetidin-3-yl)-4,5-dihydropyrrolo[3,4-c]pyrazol-6(1H)-one] | 0.154 µM |
| Cc1cc(N2C(=O)c3nn(C(=O)N(C)C)c(C)c3C2c2ccc(Cl)cc2)cn(C)c1=O (stereo not shown) [Example 141, 4-(4-chlorophenyl)-5-(1,5-dimethyl-6-oxo-1,6-dihydropyridin-3-yl)-N,N,3-trimethyl-6-oxo-5,6-dihydropyrrolo[3,4-c]pyrazole-2(4H)-carboxamide] | 0.222 µM |
| Cc1nn(C(=O)N(C)C)c2c1C(c1ccc(Cl)cc1)N(c1cc(C)c(=O)n(C)c1)C2=O (stereo not shown) [Example 142, 4-(4-chlorophenyl)-5-(1,5-dimethyl-6-oxo-1,6-dihydropyridin-3-yl)-N,N,3-trimethyl-6-oxo-5,6-dihydropyrrolo[3,4-c]pyrazole-1(4H)-carboxamide] | 0.121 µM |
| CNC(=O)n1nc(C)c2c1C(=O)N(c1cc(C)c(=O)n(C)c1)C2c1ccc(Cl)cc1 (stereo not shown) [Example 143, 4-(4-chlorophenyl)-5-(1,5-dimethyl-6-oxo-1,6-dihydropyridin-3-yl)-N,3-dimethyl-6-oxo-5,6-dihydropyrrolo[3,4-c]pyrazole-1(4H)-carboxamide] | 0.116 µM |
| CNC(=O)n1nc(C)c2c1C(=O)N(c1cc(C)c3nnc(C)n3c1)C2c1ccc(Cl)cc1 (stereo not shown) [Example 145, 4-(4-chlorophenyl)-5-(3,8-dimethyl-[1,2,4]triazolo[4,3-a]pyridin-6-yl)-N,3-dimethyl-6-oxo-5,6-dihydropyrrolo[3,4-c]pyrazole-1(4H)-carboxamide] | 0.093 µM |
| CCc1c2c(nn1C(=O)N(C)C)C(=O)N(c1cc(C)c(=O)n(C)c1)C2c1ccc(Cl)cc1 (stereo not shown) [Example 148, 4-(4-chlorophenyl)-5-(1,5-dimethyl-6-oxo-1,6-dihydropyridin-3-yl)-3-ethyl-N,N-dimethyl-6-oxo-5,6-dihydropyrrolo[3,4-c]pyrazole-2(4H)-carboxamide] | 0.114 µM |
| Cc1nn(C(=O)N(C)C)c2c1[C@@H](c1ccc(Cl)cc1)N(c1cc(C)c3nnc(C)n3c1)C2=O [Example 149, (R)-4-(4-chlorophenyl)-5-(3,8-dimethyl-[1,2,4]triazolo[4,3-a]pyridin-6-yl)-N,N,3-trimethyl-6-oxo-5,6-dihydropyrrolo[3,4-c]pyrazole-1(4H)-carboxamide] | 0.0505 µM |
| Cc1cc(N2C(=O)c3nn(C(=O)N(C)C)c(C)c3[C@H]2c2ccc(Cl)cc2)cn2c(C)nnc12 [Example 150, (R)-4-(4-chlorophenyl)-5-(3,8-dimethyl-[1,2,4]triazolo[4,3-a]pyridin-6-yl)-N,N,3-trimethyl-6-oxo-5,6-dihydropyrrolo[3,4-c]pyrazole-2(4H)-carboxamide] | 0.0863 µM |
| Cc1nn(C2CNC2)c2c1C(c1ccc(Cl)cc1)N(c1cc(C)c3nnc(C)n3c1)C2=O (stereo not shown) [Example 151, 1-(azetidin-3-yl)-4-(4-chlorophenyl)-5-(3,8-dimethyl-[1,2,4]triazolo[4,3-a]pyridin-6-yl)-3-methyl-4,5-dihydropyrrolo[3,4-c]pyrazol-6(1H)-one] | 0.368 µM |
| Cc1cc(N2C(=O)c3nn(C4CNC4)c(C)c3C2c2ccc(Cl)cc2)cn2c(C)nnc12 (stereo not shown) [Example 152, 2-(azetidin-3-yl)-4-(4-chlorophenyl)-5-(3,8-dimethyl-[1,2,4]triazolo[4,3-a]pyridin-6-yl)-3-methyl-4,5-dihydropyrrolo[3,4-c]pyrazol-6(2H)-one] | 0.8 µM |
| CC(=O)N1CC(n2nc(C)c3c2C(=O)N(c2cc(C)c(=O)n(C)c2)C3c2ccc(Cl)cc2)C1 (stereo not shown) [Example 153, 1-(1-acetylazetidin-3-yl)-4-(4-chlorophenyl)-5-(1,5-dimethyl-6-oxo-1,6-dihydropyridin-3-yl)-3-methyl-4,5-dihydropyrrolo[3,4-c]pyrazol-6(1H)-one] | 0.161 µM |
| CC(=O)N1CC(n2nc(C)c3c2C(=O)N(c2cc(C)c4nnc(C)n4c2)C3c2ccc(Cl)cc2)C1 (stereo not shown) [Example 154, 1-(1-acetylazetidin-3-yl)-4-(4-chlorophenyl)-5-(3,8-dimethyl-[1,2,4]triazolo[4,3-a]pyridin-6-yl)-3-methyl-4,5-dihydropyrrolo[3,4-c]pyrazol-6(1H)-one] | 0.112 µM |
| CCOC(=O)N1CC(n2nc(C)c3c2C(=O)N(c2cc(C)c(=O)n(C)c2)C3c2ccc(Cl)cc2)C1 (stereo not shown) [Example 155, Ethyl 3-(4-(4-chlorophenyl)-5-(1,5-dimethyl-6-oxo-1,6-dihydropyridin-3-yl)-3-methyl-6-oxo-5,6-dihydropyrrolo[3,4-c]pyrazol-1(4H)-yl)azetidine-1-carboxylate] | 0.117 µM |
| CCOC(=O)N1CC(n2nc(C)c3c2C(=O)N(c2cc(C)c4nnc(C)n4c2)C3c2ccc(Cl)cc2)C1 (stereo not shown) [Example 156, Ethyl 3-(4-(4-chlorophenyl)-5-(3,8-dimethyl-[1,2,4]triazolo[4,3-a]pyridin-6-yl)-3-methyl-6-oxo-5,6-dihydropyrrolo[3,4-c]pyrazol-1(4H)-yl)azetidine-1-carboxylate] | 0.058 µM |
| Cc1nn(C2CN(C)C2)c2c1C(c1ccc(Cl)cc1)N(c1cc(C)c3nnc(C)n3c1)C2=O (stereo not shown) [Example 157, 4-(4-chlorophenyl)-5-(3,8-dimethyl-[1,2,4]triazolo[4,3-a]pyridin-6-yl)-3-methyl-1-(1-methylazetidin-3-yl)-4,5-dihydropyrrolo[3,4-c]pyrazol-6(1H)-one] | 0.0833 µM |
| Cc1cc(N2C(=O)c3nn(C4CN(C)C4)c(C)c3C2c2ccc(Cl)cc2)cn2c(C)nnc12 (stereo not shown) [Example 158, 4-(4-chlorophenyl)-5-(3,8-dimethyl-[1,2,4]triazolo[4,3-a]pyridin-6-yl)-3-methyl-2-(1-methylazetidin-3-yl)-4,5-dihydropyrrolo[3,4-c]pyrazol-6(2H)-one] | 0.045 µM |
| Cc1nn(C[C@H](O)C(F)(F)F)c2c1[C@@H](c1ccc(Cl)cc1)N(c1cc(C)c3nnc(C)n3c1)C2=O [Example 167, (R)-4-(4-chlorophenyl)-5-(3,8-dimethyl-[1,2,4]triazolo[4,3-a]pyridin-6-yl)-3-methyl-1-((S)-3,3,3-trifluoro-2-hydroxypropyl)-4,5-dihydropyrrolo[3,4-c]pyrazol-6(1H)-one] | 0.0433 µM |
